In ChEMBL document CHEMBL4043257, “PTP1B inhibitors from the seeds of Iris sanguinea and their insulin mimetic activities via AMPK and ACC phosphorylation” (Bioorg Med Chem Lett, 2017):
pIC50: −log10 of the molar value. Activity calls are given as the source filed them. The rule behind the calls is not given here.

Assays:
[1] = target: T1, Tyrosine-protein phosphatase non-receptor type 1 (Homo sapiens, UniProt P18031); test: Inhibition of recombinant human PTP1B using pNPP as substrate after 30 mins
T1 sequence (P18031 whole entry): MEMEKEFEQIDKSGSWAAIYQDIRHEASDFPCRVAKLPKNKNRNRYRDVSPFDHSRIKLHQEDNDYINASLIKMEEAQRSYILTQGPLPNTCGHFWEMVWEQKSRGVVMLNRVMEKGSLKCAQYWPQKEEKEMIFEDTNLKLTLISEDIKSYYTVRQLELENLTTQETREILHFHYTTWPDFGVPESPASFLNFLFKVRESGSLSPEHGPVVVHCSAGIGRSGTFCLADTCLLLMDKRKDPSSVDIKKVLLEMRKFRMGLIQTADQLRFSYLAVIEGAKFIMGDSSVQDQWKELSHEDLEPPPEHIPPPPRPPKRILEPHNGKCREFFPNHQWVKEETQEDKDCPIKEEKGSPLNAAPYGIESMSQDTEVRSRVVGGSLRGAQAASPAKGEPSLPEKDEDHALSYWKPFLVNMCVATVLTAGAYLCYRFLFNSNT

C2C12 = test: Cytotoxicity against mouse C2C12 cells assessed as reduction in cell viability at 20 uM after 24 hrs by MTT assay; type: cell-based; settings: c2c12, 24 h
[2] = target: T2, Tyrosine-protein phosphatase non-receptor type 1 (Mus musculus) (UniProt P35821); test: Inhibition of PTP1B in differentiated mouse 3T3L1 cells assessed as increase in glucose uptake at 5 to 20 uM after 1 hr by 2-NBDG staining based fluorescence assay
T2 sequence (whole entry): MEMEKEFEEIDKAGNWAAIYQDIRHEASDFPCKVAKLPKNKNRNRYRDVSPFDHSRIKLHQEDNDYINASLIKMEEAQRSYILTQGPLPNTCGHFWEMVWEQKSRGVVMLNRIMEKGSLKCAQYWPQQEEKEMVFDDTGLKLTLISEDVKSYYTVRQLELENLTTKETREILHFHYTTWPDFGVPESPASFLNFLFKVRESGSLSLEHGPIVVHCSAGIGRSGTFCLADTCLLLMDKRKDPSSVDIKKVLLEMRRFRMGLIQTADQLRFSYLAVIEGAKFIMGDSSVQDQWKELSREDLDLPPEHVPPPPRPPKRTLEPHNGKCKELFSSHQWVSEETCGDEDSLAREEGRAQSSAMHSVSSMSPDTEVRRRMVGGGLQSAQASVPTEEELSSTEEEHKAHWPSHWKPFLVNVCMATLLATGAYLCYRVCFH

[3] = target: T2, Tyrosine-protein phosphatase non-receptor type 1 (Mus musculus); test: Inhibition of PTP1B in differentiated mouse 3T3L1 cells assessed as increase in glucose uptake at 20 uM after 1 hr by […] staining based fluorescence microscopic assay
[4] = target: T2, Tyrosine-protein phosphatase non-receptor type 1 (Mus musculus); test: Inhibition of PTP1B in differentiated mouse C2C12 cells assessed as upregulation of ACC phosphorylation at Ser-79 residue at 20 uM after 30 mins by Western blot assay
[5] = target: T2, Tyrosine-protein phosphatase non-receptor type 1 (Mus musculus); test: Inhibition of PTP1B in differentiated mouse C2C12 cells assessed as upregulation of AMPKalpha phosphorylation at Thr-172 residue at 20 uM after 3 hrs by Western blot assay
[6] = target: Mitogen-activated protein kinase 1 and 3 (ERK2 and ERK1) (Mus musculus) (UniProt P63085+Q63844); test: Upregulation of ERK1/2 phosphorylation at p44 residue in differentiated mouse C2C12 cells at 10 to 20 uM preincubated for 2 hrs followed by insulin addition measured after 15 mins by Western blot assay
Chain of Mitogen-activated protein kinase 1 and 3 (ERK2 and ERK1) (Mus musculus) (P63085 whole entry, looked up): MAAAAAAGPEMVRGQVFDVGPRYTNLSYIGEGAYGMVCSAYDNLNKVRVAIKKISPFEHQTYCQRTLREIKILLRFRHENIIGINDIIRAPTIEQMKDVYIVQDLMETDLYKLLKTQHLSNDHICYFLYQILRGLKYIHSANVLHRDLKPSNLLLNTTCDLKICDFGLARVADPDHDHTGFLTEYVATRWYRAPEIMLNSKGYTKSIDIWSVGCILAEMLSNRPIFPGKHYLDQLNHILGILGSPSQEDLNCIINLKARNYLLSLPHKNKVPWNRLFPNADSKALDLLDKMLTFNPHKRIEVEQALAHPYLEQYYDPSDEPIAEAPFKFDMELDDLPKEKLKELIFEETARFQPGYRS
Chain of Mitogen-activated protein kinase 1 and 3 (ERK2 and ERK1) (Mus musculus) (Q63844 whole entry, looked up): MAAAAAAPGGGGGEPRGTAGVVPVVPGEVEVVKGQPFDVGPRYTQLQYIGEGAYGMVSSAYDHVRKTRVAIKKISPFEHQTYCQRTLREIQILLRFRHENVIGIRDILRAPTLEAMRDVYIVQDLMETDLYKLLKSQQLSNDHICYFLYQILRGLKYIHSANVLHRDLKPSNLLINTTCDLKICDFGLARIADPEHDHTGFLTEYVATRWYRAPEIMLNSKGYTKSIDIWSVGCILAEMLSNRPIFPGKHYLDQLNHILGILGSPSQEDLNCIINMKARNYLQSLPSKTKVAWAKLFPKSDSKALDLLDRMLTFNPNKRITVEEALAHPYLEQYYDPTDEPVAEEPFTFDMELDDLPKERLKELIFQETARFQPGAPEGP

[7] = target: T2, Tyrosine-protein phosphatase non-receptor type 1 (Mus musculus); test: Inhibition of PTP1B in differentiated mouse C2C12 cells assessed as upregulation of ACC phosphorylation at Ser-79 residue at 0.2 mM after 30 mins by Western blot assay

SMILES | pIC50 [1] | inhibition [2] | inhibition [3] | inhibition [4] | inhibition [5] | Activity [6] | inhibition [7] | Activity (C2C12)
C=C(C)C1=CC[C@@]2(C)[C@H]1[C@H]1CC[C@@H]3[C@@]4(C)CC[C@H](OC(=O)CCCCCCCCCCCCCCC)C(C)(C)[C@@H]4CC[C@@]3(C)[C@]1(C)C[C@@H]2O | 4.63 | Active | Active | – | – | – | – | Non-Toxic
C=C1CC/C=C(\COC(C)=O)CC[C@@H](C(C)C)[C@@H](O)[C@@H]1O | 5.14 | Active | Active | Active | inactive | Active | – | Non-Toxic
NC(=O)c1ncn([C@@H]2O[C@H](CO)[C@@H](O)[C@H]2O)c1N | – | – | – | – | – | – | Active | –

Further lines, with some results ahead:

pIC50 [1] | inhibition [2] | inhibition [3] | inhibition [4] | inhibition [5] | Activity [6] | inhibition [7] | SMILES | Activity (C2C12)
4.57 | – | – | – | – | – | – | CC1(C)C[C@@H]2C[C@](C)(O)C(=O)C=C1O2 | –
4.75 | – | – | – | – | – | – | CC1(C)[C@@H]2CC(=O)[C@@]1(C)C[C@@H]2O | –
